Experimental data: paper PMC6812009, “Covalent Aurora A regulation by the metabolic integrator coenzyme A” (Redox Biology, 2019)
Where two headings read alike, the source gives them in different places.

Key:
Assay in all cases: Kinase profiling screen (radioactive filter-binding assay)
Type in all cases: biochemical
YES1 = YES1 (Homo sapiens, UniProt P07947); conditions: for activity at 100 µM: 100 μM compound, 20 μM ATP, read-out: Kinase activity, % of activity in the absence of inhibitor
How it was run: (§1)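 CoA, dpCoA and ADP were each tested in vitro, in duplicate, at 100 μM final concentration as part of a 117-kinase panel. Recombinant kinases were used with model substrates and optimal ATP concentrations.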

PRK2 = PRK2 (Homo sapiens, UniProt Q16513); conditions: 100 μM compound, 5 μM ATP; read-out: Kinase activity, % of activity in the absence of inhibitor
How it was run: as §1

PKCα = PKCα (Homo sapiens, UniProt P17252); conditions: 100 μM compound, read-out: Kinase activity, % of activity in the absence of inhibitor
How it was run: as §1

CHK2 = CHK2 (Homo sapiens, UniProt O96017); conditions: 100 μM compound, 20 μM ATP; read-out: Kinase activity, % of activity in the absence of inhibitor
How it was run: as §1

ERK1 = ERK1 (Homo sapiens, UniProt P27361); conditions: 100 μM compound, 5 μM ATP; read-out: Kinase activity, % of activity in the absence of inhibitor
How it was run: as §1

PKCβ = PKCβ (Homo sapiens, UniProt P05771); conditions: 100 μM compound, 50 μM ATP; read-out: Kinase activity, % of activity in the absence of inhibitor
How it was run: as §1

MNK2 = MNK2 (Homo sapiens, UniProt Q9HBH9); conditions: 100 μM compound, 50 μM ATP; read-out: Kinase activity, % of activity in the absence of inhibitor
How it was run: as §1

EPH-B2 = molecular target: T1, EPH-B2 (Homo sapiens, UniProt P29323); conditions: 100 μM compound, 20 μM ATP; read-out: Kinase activity, % of activity in the absence of inhibitor
T1 sequence (P29323 19-1055): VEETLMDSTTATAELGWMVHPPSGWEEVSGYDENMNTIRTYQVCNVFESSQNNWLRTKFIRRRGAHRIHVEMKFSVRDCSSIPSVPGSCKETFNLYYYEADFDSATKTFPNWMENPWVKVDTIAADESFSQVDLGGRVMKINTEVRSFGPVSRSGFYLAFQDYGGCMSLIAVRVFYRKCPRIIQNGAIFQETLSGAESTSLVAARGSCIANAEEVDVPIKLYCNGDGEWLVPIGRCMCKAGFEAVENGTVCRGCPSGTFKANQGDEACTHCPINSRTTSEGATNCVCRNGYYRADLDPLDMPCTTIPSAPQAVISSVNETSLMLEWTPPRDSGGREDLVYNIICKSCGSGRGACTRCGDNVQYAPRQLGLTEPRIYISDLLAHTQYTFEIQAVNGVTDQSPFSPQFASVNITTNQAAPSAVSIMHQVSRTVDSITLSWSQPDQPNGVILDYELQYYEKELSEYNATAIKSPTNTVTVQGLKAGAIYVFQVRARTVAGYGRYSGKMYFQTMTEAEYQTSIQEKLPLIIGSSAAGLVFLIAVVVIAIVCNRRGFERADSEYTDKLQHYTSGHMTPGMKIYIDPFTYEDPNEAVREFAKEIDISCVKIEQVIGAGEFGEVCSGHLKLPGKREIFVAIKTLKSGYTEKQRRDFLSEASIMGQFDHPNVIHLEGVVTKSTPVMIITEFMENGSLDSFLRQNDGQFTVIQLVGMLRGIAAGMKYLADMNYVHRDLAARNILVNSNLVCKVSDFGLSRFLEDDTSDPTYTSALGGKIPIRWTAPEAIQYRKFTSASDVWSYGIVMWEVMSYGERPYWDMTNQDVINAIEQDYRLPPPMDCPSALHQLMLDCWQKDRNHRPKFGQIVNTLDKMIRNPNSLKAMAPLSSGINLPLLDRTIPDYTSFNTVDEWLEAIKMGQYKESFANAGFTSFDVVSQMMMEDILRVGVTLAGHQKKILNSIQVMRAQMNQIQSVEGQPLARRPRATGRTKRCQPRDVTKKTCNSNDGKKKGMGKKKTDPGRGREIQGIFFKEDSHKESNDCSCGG
How it was run: as §1

MSK1 = MSK1 (Homo sapiens, UniProt O75582); conditions: 100 μM compound, 20 μM ATP; read-out: Kinase activity, % of activity in the absence of inhibitor
How it was run: as §1

CK2α = CK2α (Homo sapiens, UniProt P68400); conditions: 100 μM compound, 5 μM ATP; read-out: Kinase activity, % of activity in the absence of inhibitor
How it was run: as §1

RSK1 = RSK1 (Homo sapiens, UniProt Q15418); conditions: 100 μM compound, 50 μM ATP; read-out: Kinase activity, % of activity in the absence of inhibitor
How it was run: as §1

CK1δ = CK1δ (Homo sapiens, UniProt P48730); conditions: 100 μM compound, 20 μM ATP; read-out: Kinase activity, % of activity in the absence of inhibitor
How it was run: as §1

MAPKAP-K3 = MAPKAP-K3 (Homo sapiens, UniProt Q16644); conditions: 100 μM compound, 20 μM ATP; read-out: Kinase activity, % of activity in the absence of inhibitor
How it was run: as §1

SmMLCK = SmMLCK (Homo sapiens, UniProt Q15746); conditions: 100 μM compound, 20 μM ATP; read-out: Kinase activity, % of activity in the absence of inhibitor
How it was run: as §1

DYRK1A = DYRK1A (Homo sapiens, UniProt Q13627); conditions: 100 μM compound, 50 μM ATP; read-out: Kinase activity, % of activity in the absence of inhibitor
How it was run: as §1

CAMK1 = CAMK1 (Homo sapiens, UniProt Q14012); conditions: 100 μM compound, 50 μM ATP; read-out: Kinase activity, % of activity in the absence of inhibitor
How it was run: as §1

STK33 = STK33 (Homo sapiens, UniProt Q9BYT3); conditions: 100 μM compound, 50 μM ATP; read-out: Kinase activity, % of activity in the absence of inhibitor
How it was run: as §1

CSK = CSK (Homo sapiens, UniProt P41240); conditions: 100 μM compound, 20 μM ATP; read-out: Kinase activity, % of activity in the absence of inhibitor
How it was run: as §1

Sequence of CK1δ (P48730 whole entry): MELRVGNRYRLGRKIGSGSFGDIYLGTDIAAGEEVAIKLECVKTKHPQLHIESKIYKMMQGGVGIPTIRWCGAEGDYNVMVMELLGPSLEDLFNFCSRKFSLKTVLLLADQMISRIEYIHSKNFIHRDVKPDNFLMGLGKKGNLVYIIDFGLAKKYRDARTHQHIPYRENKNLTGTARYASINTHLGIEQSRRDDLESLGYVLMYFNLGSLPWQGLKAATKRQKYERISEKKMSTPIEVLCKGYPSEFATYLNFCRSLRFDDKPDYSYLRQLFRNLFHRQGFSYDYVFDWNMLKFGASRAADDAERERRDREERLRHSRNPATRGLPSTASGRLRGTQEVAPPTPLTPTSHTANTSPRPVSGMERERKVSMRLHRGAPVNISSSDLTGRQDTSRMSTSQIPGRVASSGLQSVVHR
Sequence of ERK1 (P27361 whole entry): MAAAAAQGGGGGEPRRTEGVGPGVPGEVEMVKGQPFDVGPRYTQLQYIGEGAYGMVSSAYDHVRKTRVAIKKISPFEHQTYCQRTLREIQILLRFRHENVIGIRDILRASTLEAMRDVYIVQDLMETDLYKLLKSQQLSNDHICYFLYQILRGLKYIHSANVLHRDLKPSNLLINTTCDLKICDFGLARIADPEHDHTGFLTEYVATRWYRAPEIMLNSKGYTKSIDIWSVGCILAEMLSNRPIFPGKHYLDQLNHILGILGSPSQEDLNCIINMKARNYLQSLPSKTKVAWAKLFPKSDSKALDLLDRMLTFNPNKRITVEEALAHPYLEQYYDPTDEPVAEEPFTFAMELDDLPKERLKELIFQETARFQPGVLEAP
Sequence of MSK1 (O75582 whole entry): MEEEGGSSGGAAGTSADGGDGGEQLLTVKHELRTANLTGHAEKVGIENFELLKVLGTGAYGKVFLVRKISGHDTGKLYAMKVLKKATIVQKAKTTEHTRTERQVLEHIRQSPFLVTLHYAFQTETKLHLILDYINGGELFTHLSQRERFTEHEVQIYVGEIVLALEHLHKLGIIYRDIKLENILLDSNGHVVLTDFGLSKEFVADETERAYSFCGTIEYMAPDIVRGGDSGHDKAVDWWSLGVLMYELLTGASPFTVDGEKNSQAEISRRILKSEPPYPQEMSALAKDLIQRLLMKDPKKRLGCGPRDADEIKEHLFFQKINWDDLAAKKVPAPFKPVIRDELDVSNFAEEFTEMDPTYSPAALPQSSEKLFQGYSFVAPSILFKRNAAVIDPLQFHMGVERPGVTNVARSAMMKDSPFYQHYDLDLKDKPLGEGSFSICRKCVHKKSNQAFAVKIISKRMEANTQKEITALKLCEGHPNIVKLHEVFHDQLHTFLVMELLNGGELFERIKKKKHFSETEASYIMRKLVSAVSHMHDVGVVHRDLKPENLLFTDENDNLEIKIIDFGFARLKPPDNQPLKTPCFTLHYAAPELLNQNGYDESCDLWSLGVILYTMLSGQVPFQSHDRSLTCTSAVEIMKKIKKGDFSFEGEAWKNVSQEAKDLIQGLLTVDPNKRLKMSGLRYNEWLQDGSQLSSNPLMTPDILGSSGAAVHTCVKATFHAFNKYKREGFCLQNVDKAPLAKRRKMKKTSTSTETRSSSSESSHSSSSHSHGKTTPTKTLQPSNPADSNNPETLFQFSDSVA
Sequence of MNK2 (Q9HBH9 whole entry): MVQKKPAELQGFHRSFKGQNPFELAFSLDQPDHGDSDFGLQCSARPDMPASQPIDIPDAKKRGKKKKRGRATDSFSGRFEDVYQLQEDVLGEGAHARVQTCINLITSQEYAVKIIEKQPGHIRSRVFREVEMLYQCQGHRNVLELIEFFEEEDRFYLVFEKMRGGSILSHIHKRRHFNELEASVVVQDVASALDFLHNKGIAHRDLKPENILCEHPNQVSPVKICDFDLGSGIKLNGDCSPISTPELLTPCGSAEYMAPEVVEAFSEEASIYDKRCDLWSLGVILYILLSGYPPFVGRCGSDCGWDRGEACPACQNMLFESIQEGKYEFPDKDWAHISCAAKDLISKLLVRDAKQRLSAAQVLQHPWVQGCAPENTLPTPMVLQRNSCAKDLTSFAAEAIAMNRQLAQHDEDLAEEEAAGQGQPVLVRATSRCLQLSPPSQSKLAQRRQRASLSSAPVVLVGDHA
Sequence of SmMLCK (Q15746 923-1914): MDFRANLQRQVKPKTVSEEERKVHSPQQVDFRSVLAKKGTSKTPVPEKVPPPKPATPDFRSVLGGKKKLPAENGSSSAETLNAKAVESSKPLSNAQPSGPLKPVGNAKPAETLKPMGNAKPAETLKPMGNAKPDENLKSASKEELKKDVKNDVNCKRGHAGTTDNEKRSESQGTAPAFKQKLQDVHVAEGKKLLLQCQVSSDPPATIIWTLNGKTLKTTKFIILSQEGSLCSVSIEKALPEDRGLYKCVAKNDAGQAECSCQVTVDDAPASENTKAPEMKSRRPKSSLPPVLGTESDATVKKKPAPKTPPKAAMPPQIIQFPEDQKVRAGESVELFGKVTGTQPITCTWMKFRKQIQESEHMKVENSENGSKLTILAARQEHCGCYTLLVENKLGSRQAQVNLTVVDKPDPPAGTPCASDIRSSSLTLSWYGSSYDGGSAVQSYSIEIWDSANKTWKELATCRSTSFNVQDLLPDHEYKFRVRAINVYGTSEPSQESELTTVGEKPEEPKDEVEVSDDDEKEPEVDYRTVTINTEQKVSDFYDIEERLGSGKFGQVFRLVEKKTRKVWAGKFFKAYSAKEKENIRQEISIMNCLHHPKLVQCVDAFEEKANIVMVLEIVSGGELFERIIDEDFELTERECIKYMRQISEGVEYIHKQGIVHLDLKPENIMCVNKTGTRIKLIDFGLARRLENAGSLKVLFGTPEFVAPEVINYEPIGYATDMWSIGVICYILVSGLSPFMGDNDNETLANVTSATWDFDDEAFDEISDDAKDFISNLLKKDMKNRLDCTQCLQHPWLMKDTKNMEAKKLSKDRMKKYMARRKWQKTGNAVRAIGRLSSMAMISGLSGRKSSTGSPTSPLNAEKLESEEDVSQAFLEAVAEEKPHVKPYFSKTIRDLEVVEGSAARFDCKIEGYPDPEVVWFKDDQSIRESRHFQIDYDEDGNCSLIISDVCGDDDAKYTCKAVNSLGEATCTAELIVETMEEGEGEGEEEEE
Sequence of YES1 (P07947 whole entry): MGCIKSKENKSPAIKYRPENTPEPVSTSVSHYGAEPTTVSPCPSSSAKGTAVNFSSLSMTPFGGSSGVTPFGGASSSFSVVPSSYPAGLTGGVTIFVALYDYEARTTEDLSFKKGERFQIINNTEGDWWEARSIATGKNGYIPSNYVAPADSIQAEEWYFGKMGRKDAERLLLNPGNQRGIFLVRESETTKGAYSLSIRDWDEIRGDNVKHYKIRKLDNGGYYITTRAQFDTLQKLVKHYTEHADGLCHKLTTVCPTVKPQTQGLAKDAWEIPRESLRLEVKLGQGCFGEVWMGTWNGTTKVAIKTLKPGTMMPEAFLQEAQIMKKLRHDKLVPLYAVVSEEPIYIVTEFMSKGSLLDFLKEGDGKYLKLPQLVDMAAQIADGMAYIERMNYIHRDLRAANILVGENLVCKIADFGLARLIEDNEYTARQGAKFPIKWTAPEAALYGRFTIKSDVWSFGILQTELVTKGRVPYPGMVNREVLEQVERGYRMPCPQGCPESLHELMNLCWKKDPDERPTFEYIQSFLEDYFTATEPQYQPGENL
Sequence of CHK2 (O96017 whole entry): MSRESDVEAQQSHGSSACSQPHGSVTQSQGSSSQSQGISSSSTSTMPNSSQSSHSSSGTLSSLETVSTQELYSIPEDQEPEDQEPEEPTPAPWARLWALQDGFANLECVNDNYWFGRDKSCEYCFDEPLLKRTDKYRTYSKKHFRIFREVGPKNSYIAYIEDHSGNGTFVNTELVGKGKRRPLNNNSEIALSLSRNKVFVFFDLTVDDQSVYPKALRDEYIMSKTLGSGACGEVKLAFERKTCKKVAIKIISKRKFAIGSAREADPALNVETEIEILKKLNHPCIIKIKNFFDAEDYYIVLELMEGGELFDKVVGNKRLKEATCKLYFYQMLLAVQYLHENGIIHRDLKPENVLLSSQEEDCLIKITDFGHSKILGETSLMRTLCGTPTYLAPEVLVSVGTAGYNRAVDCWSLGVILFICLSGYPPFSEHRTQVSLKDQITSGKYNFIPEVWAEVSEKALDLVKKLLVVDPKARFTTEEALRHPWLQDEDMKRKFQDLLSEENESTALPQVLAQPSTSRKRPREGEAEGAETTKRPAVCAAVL
Sequence of MAPKAP-K3 (Q16644 whole entry): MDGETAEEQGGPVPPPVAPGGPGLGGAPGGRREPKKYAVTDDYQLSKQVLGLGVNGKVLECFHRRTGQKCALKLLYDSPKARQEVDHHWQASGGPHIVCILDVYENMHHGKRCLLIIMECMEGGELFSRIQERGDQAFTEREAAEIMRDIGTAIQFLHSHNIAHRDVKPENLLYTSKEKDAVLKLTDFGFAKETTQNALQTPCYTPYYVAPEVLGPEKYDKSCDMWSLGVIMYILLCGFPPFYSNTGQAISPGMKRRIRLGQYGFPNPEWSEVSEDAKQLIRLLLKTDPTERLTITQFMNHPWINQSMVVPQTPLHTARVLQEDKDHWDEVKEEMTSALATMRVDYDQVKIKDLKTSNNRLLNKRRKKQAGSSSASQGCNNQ
Sequence of CSK (P41240 whole entry): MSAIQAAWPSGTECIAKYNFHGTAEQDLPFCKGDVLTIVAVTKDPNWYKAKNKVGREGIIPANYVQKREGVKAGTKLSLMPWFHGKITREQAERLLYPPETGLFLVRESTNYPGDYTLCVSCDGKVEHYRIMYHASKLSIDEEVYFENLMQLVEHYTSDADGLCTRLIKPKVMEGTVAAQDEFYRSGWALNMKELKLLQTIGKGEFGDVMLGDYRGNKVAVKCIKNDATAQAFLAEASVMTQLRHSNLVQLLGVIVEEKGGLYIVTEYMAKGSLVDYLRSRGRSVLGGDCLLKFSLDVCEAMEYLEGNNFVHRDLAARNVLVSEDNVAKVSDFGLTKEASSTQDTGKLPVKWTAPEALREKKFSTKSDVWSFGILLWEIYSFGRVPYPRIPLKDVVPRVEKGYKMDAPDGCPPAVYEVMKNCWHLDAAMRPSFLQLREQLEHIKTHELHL

SMILES	activity at 100 µM (YES1) [%]	activity at 100 µM (PRK2) [%]	activity at 100 µM (PKCα; 5 μM ATP) [%]	activity at 100 µM (PKCα; 20 μM ATP) [%]	activity at 100 µM (CHK2) [%]	activity at 100 µM (ERK1) [%]	activity at 100 µM (PKCβ) [%]	activity at 100 µM (MNK2) [%]	activity at 100 µM (EPH-B2) [%]	activity at 100 µM (MSK1) [%]	activity at 100 µM (CK2α) [%]	activity at 100 µM (RSK1) [%]	activity at 100 µM (CK1δ) [%]	activity at 100 µM (MAPKAP-K3) [%]	activity at 100 µM (SmMLCK) [%]	activity at 100 µM (DYRK1A) [%]	activity at 100 µM (CAMK1) [%]	activity at 100 µM (STK33) [%]	activity at 100 µM (CSK) [%]	further results
Nc1ncnc2c1ncn2C1OC(COP(=O)(O)OP(=O)(O)O)C(O)C1O (centres unmarked) [ADP]	18.6	20.8	38.6	76.5	43.2	67.7	79.2	41.2	14.3	53.3	5.4	58.5	57.6	25.7	73	75.9	80.1	54.6	18.5	–
CC(C)(COP(=O)(O)OP(=O)(O)OC[C@H]1O[C@@H](n2cnc3c(N)ncnc32)[C@H](O)[C@@H]1OP(=O)(O)O)[C@@H](O)C(=O)NCCC(=O)NCCS [CoA, Coenzyme A]	49	71.3	104	78.1	88.9	118	118	138	117	106	80.1	97.2	80.8	98.4	92.1	93.1	124	71.8	92.6	inhibition at 100 µM (YES1; 100 μM CoA, kinase profiling screen, read-out: YES inhibition): ≤ 50%; YES inhibition (in words) (YES1; kinase profiling, 100 μM): modestly inhibited
CC(C)(COP(=O)(O)OP(=O)(O)OCC1OC(n2cnc3c(N)ncnc32)C(O)C1O)C(O)C(=O)NCCC(=O)NCCS (centres unmarked) [dpCoA, dephospho-CoA]	11.5	67.5	76.8	88.9	56	114	105	87.1	91.1	70.5	39.8	98.9	80.4	63	91.3	90.2	126	83.3	54.9	–
